In publication PMC2363072, “Oral topotecan: bioavailability and effect of food co-administration” (British Journal of Cancer, 1999):
Where two headings read alike, the source gives them in different places.

How the values were obtained:
[1] = tested on: topoisomerase I; parameters: method as in Johnson and Wood, personal communication; settings: ref Johnson and Wood, personal communication; cited from earlier work
[2] = clinical; type: in vivo, human (patients with solid tumours); settings: for Urinary excretion: 24 h urine
Source text: (§1) Topotecan (Hycamtin) is one of the prototypes of a promising new class of cytotoxic drugs that act through inhibition of topoisomerase I. Topoisomerase I is a nuclear enzyme that relieves the torsional strain in DNA ahead of the moving replication fork (Hsiang et al, 1988, 1989). Inhibition of the enzyme results in lethal DNA damage during transcription and replication. The E-ring lactone in the basic structure of topotecan is considered to be essential for interaction with the topoisomerase I enzyme (Hertzberg et al, 1989; Pommier et al, 1991). […] Prolonged administra- tion increases the probability that tumour cells will be exposed to topotecan during DNA replication, i.e. when they are most suscep- tible. In-vivo in patients there is yet no convincing evidence of a clinically relevant schedule dependency. Intravenous (i.v.) topotecan administered as daily 30-min infu- sions for 5 days has recently received marketing approval for the treatment of patients with ovarian cancer after failure of initial or subsequent platinum-based chemotherapy. An oral gelatin capsule formulation has now been developed (Creemers et al, 1997; Gerrits et al 1998). A phase I study has determined the maximum tolerated dose (MTD) for oral topotecan to be 2.3 mg m-2 for the daily times five dosing schedule (Gerrits et al, 1998). […] In these studies, bioavailability was tested in fasted patients. […] Food can have marked effects on drug absorption by increasing, decreasing, or sometimes simply delaying it. Food can also influence drug metabolism, and certain food components, such as protein and fat, are particularly potent in this respect. For an oral formulation it is therefore essential to investigate the effect of food co-administration on the pharmacokinetics. The aims of the present study were (1) to evaluate the effect of fed and fasted conditions on the bioavailability and pharmaco- kinetics of oral topotecan, and (2) to determine the absolute bioavailability of the gelatin capsule formulation. Oral topotecan: bioavailability and effect of food co-administration VMM Herben1,2 , H Rosing1 , WW ten Bokkel Huinink2 , DM van Zomeren1 , D Batchelor2 , E Doyle3 , FD Beusenberg4 , JH Beijnen1,2 and JHM Schellens2 1 Slotervaart Hospital/The Netherlands Cancer Institute, Department of Pharmacy and Pharmacology, Amsterdam, The Netherlands; 2 Antoni van Leeuwenhoek Hospital/The Netherlands Cancer Institute, Department of Medical Oncology, Amsterdam, The Netherlands; 3 SmithKline Beecham Pharmaceuticals, Department of Drug Metabolism and Pharmacokinetics, Hertfordshire, UK; 4 SmithKline Beecham Farma, Rijswijk, The Netherlands Summary The aims of the study were twofold: (1) to evaluate the effect of food on the relative oral bioavailability of topotecan gelatin capsules in patients with solid tumours, and (2) to determine the absolute bioavailability of oral topotecan with reference to the intravenous (i.v.) formulation. […] On day 1 of the first treatment course patients were administered 2.3 mg m-2 day-1 of oral topotecan with or without a high-fat breakfast. They crossed over to receive the alternate regimen on day 2. In the second course (3 weeks later) fasted patients received topotecan orally (2.3 mg m-2 day-1 ) or i.v. ([…]). They crossed over to receive the alternate regimen on day 2. On days 3-5 of both treatment courses patients received oral topotecan. Plasma pharmacokinetics were performed on days 1 and 2 of the first and second course using a high-performance liquid chromatographic assay. Eighteen patients were enrolled in the study. The ratio of the area under the curve to infinity during fasted and high-fat treatment was 0.93 0.23 (90% confidence interval (CI) 0.83-1.03). Maximal plasma concentrations of topotecan were similar after ingestion of the capsules with (10.6 4.4 ng ml-1 ) or without food (9.2 4.1 ng ml-1 ) (P = 0.130). […]

[3] = parameters: method as in Eckardt et al, 1995; Schellens et al, 1996; settings: i.v. formulation administered orally; fasted patients; ref Eckardt et al, 1995; Schellens et al, 1996; cited from earlier work
[4] = clinical; parameters: species or system human (patients with solid tumours); settings: human, in vivo
Source text: as §1

[5] = parameters: method as in Davies et al, 1995; settings: dogs, ref Davies et al, 1995; cited from earlier work
[6] = parameters: method as in Gerrits et al, 1998; settings: oral gelatin capsule, ref Gerrits et al, 1998, cited from earlier work
[7] = metabolite as total of lactone and carboxylate, corrected for administered topotecan dose
[8] = total of the analyte, plasma, after i.v. topotecan 1.5 mg m-2
[9] = total, corrected for actual administered topotecan dose

## CC[C@@]1(O)C(=O)OCc2c1cc1n(c2=O)Cc2cc3c(CNC)c(O)ccc3nc2-1 [N-desmethyltopotecan]
[1]
  topoisomerase I-inhibiting activity relative to parent compound: slightly less topoisomerase I-inhibiting activity than the parent compound
[2]; after i.v. administration
  metabolic ratio (metabolite:topotecan AUC ratio): 4.5%
[2]; after ingestion of topotecan capsules
  time at which maximal total metabolite plasma levels were reached, median: 4.0 h
[2]; after oral administration
  metabolic ratio (metabolite:topotecan AUC ratio): 6.9%
[2]; after the start of the i.v. infusion
  time at which maximal total metabolite plasma levels were reached, median: 2.1 h
[2]; lactone form of metabolite, lower limit of quantification 0.1 ng ml-1
  lactone plasma concentrations: below the detection limit in six patients
[2]; [7]
  oral:i.v. AUC0- (to infinity) ratio: 62%
  oral:i.v. AUC0-t ratio: 71%
[2]; plasma, after i.v. topotecan 1.5 mg m-2
  Cmax: 0.44 ng/mL
[2]; plasma, after oral topotecan 2.3 mg m-2
  Cmax: 0.34 ng/mL
[2]; total
  t1/2 ratio oral/i.v.: 1.17
[2]; total (lactone + carboxylate) of the analyte, plasma, after oral topotecan 2.3 mg m-2
  AUC0-t: 2.7 ng·h/mL
[2]; total of the analyte, % of i.v. topotecan dose
  Urinary excretion: 0.9%
[2]; total of the analyte, % of oral topotecan dose (topotecan corrected for F)
  Urinary excretion: 1.1%
[2]; total of the analyte, after i.v. topotecan 1.5 mg m-2
  t1/2 (apparent terminal half-life): 6.21 h
[2]; total of the analyte, after oral topotecan 2.3 mg m-2
  t1/2 (apparent terminal half-life): 7.25 h
[2]; [8]
  AUC0- (area under the curve to infinity): 4.8 ng·h/mL
  AUC0-t: 2.4 ng·h/mL
[2]; total of the analyte, plasma, after oral topotecan 2.3 mg m-2
  AUC0- (area under the curve to infinity): 4.6 ng·h/mL
[2]; [9]
  AUC0- (to infinity) ratio oral/i.v.: 0.62
  AUC0-t ratio oral/i.v.: 0.71
  Cmax ratio oral/i.v.: 0.51

## CC[C@@]1(O)C(=O)OCc2c1cc1n(c2=O)Cc2cc3c(CN(C)C)c(O)ccc3nc2-1 [topotecan, Topotecan]
[3]
  bioavailability: 30-44%
[4]
  plasma concentration at the pre-dose time point for day 2 (carry-over), mean: 0.43 ng/mL
[4]; po, 2.3 mg
  AUC0- (to infinity) ratio fasted/fed: 0.88
  time needed to reach maximal plasma levels (tmax), median: 2.0 h
[4]; po, 2.3 mg, AUC0-t
  AUC0-t: 19.6 ng·h/mL
[4]; po, 2.3 mg, t1/2 (apparent terminal half-life)
  half-life: 3.84 h
[4]; po, 2.3 mg, time needed to reach maximal plasma levels (tmax), median
  Tmax: 3.1 h
[4]; total, oral 2.3 mg m-2, fed, read-out: t1/2 (apparent terminal half-life) (converted)
  half-life: 3.49 h
[5]
  part of an absorbed oral dose that enters the blood circulation as the open-ring form: approximately 2.5%
[2]; human, in vivo
  absolute bioavailability (F) using AUC0-t: 40%
[2]; human, in vivo, absolute bioavailability (F)
  bioavailability: 42 ± 13%
[2]; human, in vivo, bioavailability calculated using only the lactone data
  bioavailability: 38%
[2]; human, in vivo, iv
  coefficient of variation of the AUC0- (interpatient variability): 25%
  lactone:total topotecan AUC0- ratio: 0.38
[2]; human, in vivo, iv, 1.5 mg
  AUC0- (area under the curve to infinity): 38.6 ng·h/mL
  t1/2 (apparent terminal half-life): 2.64 h
[2]; human, in vivo, iv, 1.5 mg, Cmax
  Cmax: 33.9 ng/mL
[2]; human, in vivo, po
  coefficient of variation of the AUC0- (interpatient variability): 44%
  lactone:total topotecan AUC0- ratio: 0.35
[2]; human, in vivo, po, 2.3 mg
  AUC0- (area under the curve to infinity): 22.7 ng·h/mL
  AUC0-t: 20.4 ng·h/mL
[2]; human, in vivo, po, 2.3 mg, Cmax
  Cmax: 6.3 ng/mL
[6]; daily times five dosing schedule
  maximum tolerated dose (MTD): 2.3 mg m-2
[6]; daily times five
  Dose-limiting toxicity (DLT): NCI CTC grade 4 neutropenia
